What all share (format): cell-based, mice
For one assay, the system named is WT thymocytes. The assay is described as follows: Thymocyte proliferation, [3H] thymidine incorporation. The note with it: WT thymocytes. The method, then:
For proliferation assays, purified thymocytes or CD4^+ or CD8^+ splenic T cells (2×10^5 cells/well) were cultured in round bottom 96-well plates (Costar) precoated with anti-CD3 antibody (BD Pharmingen) in the absence or presence of soluble anti-CD28 antibody (BD Pharmingen). After 3 days, cultures were pulsed for 6 hrs with 1 μCi [^3H] thymidine (New England Nuclear) per well and cells were harvested. [^3H] thymidine incorporation was measured by scintillation counting. When indicated, either recombinant IL-4 or neutralizing anti-IL-4 antibody (R&D Systems) were added prior to [^3H] thymidine labeling.
For proliferation assays, purified thymocytes (2×10^5 cells/well) were cultured in round bottom 96-well plates (Costar) precoated with anti-CD3 antibody (BD Pharmingen) in the absence or presence of soluble anti-CD28 antibody (BD Pharmingen). […] [^3H] thymidine incorporation was measured by scintillation counting. […]
The effect of the Mekk1^KD mutation on activation of JNK and other MAPKs in response to TCR and CD28 engagement was investigated. • A. WT and Mekk1^KD thymocytes were incubated with anti-CD3 (10 μg/ml) and anti-CD28 (1 μg/ml). At the indicated times, JNK activity was measured by an immunecomplex kinase assay using GST-c-Jun(1-79) as the substrate. Phosphorylated c-Jun was detected by autoradiography and quantitated using a PhosphorImager. […] Cell proliferation was measured as above. […]

In the next assay the test system is c-Jun and JunB. The assay can be described thus: Immunoblotting of Jun protein levels in activated T cells. The method, then:
(§1) JNK1 was immunoprecipitated from 30 μg cell lysate with anti-JNK1 antibody (333, PharMingen) and its kinase activity measured by an immunecomplex kinase assay with GST-c-Jun(1-79) as a substrate (Xia et al. (2000) Proc Natl Acad Sci USA 97, 5243-5248). c-Jun phosphorylation was quantitated using a PhosphoImager (Bio-Rad) and gel loading was normalized by immunoblotting with a monoclonal antibody against JNK1/2 (666, PharMingen). ERK activation was examined by immunoblotting of gel separated whole cell extracts (100 μg) with an antibody specific for phospho-ERK (Cell Signaling). Polyclonal antibody against MEKK1 was prepared as described (Gallagher et al. (2002) J Biol Chem 277, 45785-45792). Antibodies against c-Jun, JunB, GATA3, c-Maf, NFATc1, NFATc2, p16, and p65 (RelA) were all from Santa Cruz Biotechnology. Polyclonal antibody against Itch was prepared as described (Qiu et al. (2000) J Biol Chem 275, 35734-35737). The levels of various proteins were quantitated by BioRad Quantity One software.
(§2) The levels of Itch and actin were examined was measured by immunoblotting. […] Cells were chased with nonradioactive amino acids for the indicated times, at which they were lysed and Itch expression levels were determined by radioimmunoprecipitation. The levels of [^35S]-labeled Itch were quantitated using a PhosphoImager. […] JNK activity was measured by an immunecomplex kinase assay. Phosphorylated c-Jun was detected by autoradiography and quantitated using a PhosphoImager. […]
Inactivation of MEKK1 or JNK Slows Down JunB and c-Jun Turnover • A. Thymocytes and CD4^+ T cells from WT and Mekk1^ΔKD were stimulated with anti-CD3+anti-CD28 for 24 hrs. Cell extracts were prepared and the levels of various transcription factors were measured by immunoblotting. The relative levels of the different proteins determined by densitometry are indicated. […] The mRNA levels of Jun family members and c-Fos were measured by RNase protection. […] Cell lysates were prepared and immunoprecipitated with various antibodies as indicated, separated by SDS-PAGE and analyzed by autoradiography. […]
In general terms: Immunoblotting shows a protein as a band on a membrane.

A further assay deals with Itch. The assay can be described thus: Immunoblotting of Itch level in activated thymocytes. The following applies: activated WT thymocytes. The procedure: as §1, with “Polyclonal antibody against Itch was prepared as described (Qiu et al. (2000) J Biol Chem 275, 35734-35737).” left out
as §2

The source of these data is patent US20080213817A1, “Enhancement of Th2-Dependent and Inflammatory Response” (priority 2004, published 2008).

In the case of `Oc1ccc(-c2nc(-c3ccncc3)c(-c3ccc(F)cc3)[nH]2)cc1` [SB202190], the “effect on [3H] thymidine incorporation (in words)” value in the assay with WT thymocytes (anti-CD3+anti-CD28) is listed as “did not produce such an effect”. Further, the “c-Jun and JunB expression (in words)” value in the assay with c-Jun and JunB (WT CD4^+ T cells stimulated with anti-CD3 and anti-CD28, 24 hours) was “No such effects”. Moreover, the “effect on c-Jun and JunB expression (in words)” value in the assay on c-Jun and JunB (activated WT thymocytes) is “Negligible such effects”. In the assay with Itch, the “effect on Itch expression (in words)” value was “Negligible such effects”.
Regarding `Oc1c2ccccc2c2c3c(cccc13)N=N2` [SP600125], the “increase in [3H] thymidine incorporation” value in the assay with WT thymocytes (different concentrations of anti-CD3+anti-CD28, increasing amounts of inhibitor, 72 hrs) is listed as “at least 2 fold”. Besides, in the assay with c-Jun and JunB (activated WT thymocytes (anti-CD3+anti-CD28), 24 hrs, SP600125 0.5 μM, JNKI-1 25 μM), the “increase in c-Jun and JunB expression” value was determined as 4 fold. Further, the “decrease in Itch expression” value in the assay with Itch (24 hrs, 0.5 μM) is 2 fold.
